Experimental data as given in article PMC8227227 (Viruses, 2021).
Read-outs that look alike come from different tables or passages of the source.

What was measured:
HIV-1 PR [1] = molecular target: T1, HIV-1 PR (Human immunodeficiency virus type 1 group M subtype B, UniProt P04585); conditions: values published previously, cited from earlier work
T1 construct: assayed as substrates of the HIV-1 protease (PR)

HIV-1 PR [2] = molecular target: T1, HIV-1 PR; test: Enzyme assay with synthetic oligopeptide substrates (RP-HPLC); format: biochemical, human immunodeficiency virus type 1 (HIV-1); conditions: for kcat / Km: Table 3, revertant peptides, 37 °C, 1 h; for kcat: same buffer, peptides not cleaved at threshold given as estimated kcat < 0.01 s^−1; for cleavability by HIV-1 PR: threshold estimated kcat < 0.01 s^−1; for Km: 0.25 M potassium phosphate pH 5.6, 7.5% glycerol, 1 mM EDTA, 5 mM DTT, 2 M NaCl, RP-HPLC, Michaelis-Menten fit; for kcat/Km: Table 3, specificity constant calculated from the Km and kcat values

Row | Sequence | Km (HIV-1 PR [1]; Table 2) [µM] | kcat (HIV-1 PR [1]; Table 2) | kcat/Km (HIV-1 PR [1]; Table 2) | kcat (HIV-1 PR [2]) [s⁻¹] | Km (HIV-1 PR [2]) [µM] | further results
1 | KIVKCFGCGK [peptide 14, P1′ substituted NC-1 decapeptide […]] | 1340 | 0.002 ^1 s^−1 | 0.001 ^1 mM^−1 s^−1 | – | – | Km (HIV-1 PR [1]; Table 3, repeated from Table 2): 1340 µM; kcat (HIV-1 PR [1]; Table 3, repeated from Table 2): 0.002 s⁻¹; kcat/Km (HIV-1 PR [1]; Table 3, repeated from Table 2): 0.001 mM⁻¹ s⁻¹
2 | RKIVKCFGCIKR [peptide 18, revertant NC-1 cleavage site peptide […]] | – | – | – | <0.010 | – | cleavability by HIV-1 PR (HIV-1 PR [2]): did not provide a cleavable peptide
3 | KIVKICFGCGKR [peptide 17, revertant NC-1 cleavage site peptide […]] | – | – | – | 0.025 | 70 | kcat/Km (HIV-1 PR [2]): 0.35 mM⁻¹ s⁻¹
4 | RKIVICFGCGKR [peptide 16, revertant NC-1 cleavage site peptide […]] | – | – | – | 0.034 | 35 | kcat/Km (HIV-1 PR [2]): 0.97 ^5 mM^−1 s^−1
5 | KIVKCFFCGK [peptide 2, P1′ substituted NC-1 decapeptide […]] | 20 | 0.900 ^1 s^−1 | 59.6 ^1 mM^−1 s^−1 | – | – | –
6 | KIVTCFGCGK [peptide 15, revertant NC-1 cleavage site peptide […]] | – | – | – | <0.010 | – | cleavability by HIV-1 PR (HIV-1 PR [2]): did not yield a cleavable peptide
7 | KIVKCFNCGK [peptide 1] | 430 | 0.017 ^1 s^−1 | 0.040 ^1 mM^−1 s^−1 | – | – | Km (HIV-1 PR [1]; Table 3, repeated from Table 2): 430 µM; kcat (HIV-1 PR [1]; Table 3, repeated from Table 2): 0.017 s⁻¹; kcat/Km (HIV-1 PR [1]; Table 3, repeated from Table 2): 0.040 mM⁻¹ s⁻¹
8 | RKIVICFGCIKR [peptide 19, revertant NC-1 cleavage site peptide […]] | – | – | – | 0.015 | < 10 | –
